Read-outs that look alike come from different tables or passages of the source. Marks after values point to notes of the source that are not given here.
Experiments:
[1] = tested on: CCl4 administration in mice; assay: Hexobarbitone sleep time after CCl4 administration; assay type: in vivo
[2] = tested on: CCl4 induced hepatic injury in rats; assay: Hepatoprotective activity, prophylactic study, CCl4; assay type: in vivo
[3] = tested on: acetaminophen (APAP) in mice; assay: Hepatoprotective activity, curative study, acetaminophen (APAP) after diethyl-ether; assay type: in vivo
[4] = tested on: alcohol induced hepatic damage in rats; assay: Hepatoprotective activity against alcohol induced hepatic damage (serum and hepatic parameters); assay type: in vivo; settings: for Hepatic Protein % change: only change and not protection
[5] = tested on: CCl4 administration in mice
[6] = 12.5 mg/kg p.o. 1 h before CCl4, mice
[7] = 25 mg/kg p.o. 1 h before CCl4, mice
[8] = 50 mg/kg p.o. 1 h before CCl4, mice
[9] = 100 mg/kg p.o. 1 h before CCl4, mice
[10] = 12.5 mg/kg p.o. + CCl4, prophylactic
[11] = 25 mg/kg p.o. + CCl4, prophylactic
[12] = 50 mg/kg p.o. + CCl4, prophylactic
[13] = 100 mg/kg p.o. + CCl4, prophylactic
[14] = TCA alone 100 mg/kg p.o., no CCl4, prophylactic study
[15] = 12.5 mg/kg p.o. + APAP, curative
[16] = 100 mg/kg p.o. + APAP, curative
[17] = TCA alone 100 mg/kg p.o., no APAP, curative study

## CCCCCCCC/C=C/CCCCCCCCCCCCCC(=O)O [TCA, t-Tetracos-15-enoic acid]
[1]; [6]
  Hexobarbitone Hepatoprotection: 35.55 ± 5.78%
  Hexobarbitone Sleeping time: 44.16 ± 1.87*^c min
[1]; [7]
  Hexobarbitone Hepatoprotection: 55.14 ± 7.16%
  Hexobarbitone Sleeping time: 37.83 ± 2.31**^c min
[1]; [8]
  Hexobarbitone Hepatoprotection: 74.21 ± 6.27%
  Hexobarbitone Sleeping time: 31.66 ± 2.31**^c min
[1]; [9]
  Hexobarbitone Hepatoprotection: 85.04 ± 7.12%
  Hexobarbitone Sleeping time: 28.16 ± 2.30**^c min
[1]; TCA alone 100 mg/kg p.o., no CCl4, mice
  Hexobarbitone Sleeping time: 21.85 ± 1.34 min
[2]; [10]
  Serum ALP: 45.25 ± 2.37^NS μmole of p-nitrophenol formed/min/L
  Serum ALP, hepatoprotective activity percent: (26.32 ± 6.55) percent
  Serum Bilirubin: 0.47 ± 0.01 mg %
  Serum Bilirubin, hepatoprotective activity percent: (47.98 ± 2.02) percent
  Serum GOT: 695.16 ± 67.28 Units
  Serum GOT, hepatoprotective activity percent: (33.87 ± 7.99) percent
  Serum GPT: 992.34 ± 73.25 Units
  Serum GPT, hepatoprotective activity percent: (41.52 ± 4.97) percent
  Serum Triglycerides: 13.51 ± 0.51^NS mg %
  Serum Triglycerides, hepatoprotective activity percent: (26.40 ± 7.84) percent
[2]; [11]
  Serum ALP: 39.48 ± 2.46 μmole of p-nitrophenol formed/min/L
  Serum ALP, hepatoprotective activity percent: (43.28 ± 7.81) percent
  Serum Bilirubin: 0.42 ± 0.01 mg %
  Serum Bilirubin, hepatoprotective activity percent: (55.33 ± 2.86) percent
  Serum GOT: 674.44 ± 53.20 Units
  Serum GOT, hepatoprotective activity percent: (36.33 ± 6.32) percent
  Serum GPT: 924.39 ± 39.82 Units
  Serum GPT, hepatoprotective activity percent: (46.10 ± 2.70) percent
  Serum Triglycerides: 12.11 ± 0.70^NS mg %
  Serum Triglycerides, hepatoprotective activity percent: (47.72 ± 11.33) percent
[2]; [12]
  Serum ALP: 35.19 ± 2.90 μmole of p-nitrophenol formed/min/L
  Serum ALP, hepatoprotective activity percent: (56.81 ± 9.15) percent
  Serum Bilirubin: 0.34 ± 0.01 mg %
  Serum Bilirubin, hepatoprotective activity percent: (67.67 ± 2.30) percent
  Serum GOT: 543.99 ± 79.93 Units
  Serum GOT, hepatoprotective activity percent: (51.82 ± 9.94) percent
  Serum GPT: 636.69 ± 44.49 Units
  Serum GPT, hepatoprotective activity percent: (65.66 ± 3.02) percent
  Serum Triglycerides: 11.89 ± 0.75^NS mg %
[2]; [13]
  Serum ALP: 30.14 ± 2.54 μmole of p-nitrophenol formed/min/L
  Serum ALP, hepatoprotective activity percent: (72.92 ± 8.07) percent
  Serum Bilirubin: 0.26 ± 0.02 mg %
  Serum Bilirubin, hepatoprotective activity percent: (79.04 ± 3.57) percent
  Serum GOT: 432.08 ± 37.38 Units
  Serum GOT, hepatoprotective activity percent: (65.10 ± 4.50) percent
  Serum GPT: 419.72 ± 17.60 Units
  Serum GPT, hepatoprotective activity percent: (80.39 ± 1.19) percent
  Serum Triglycerides: 11.20 ± 0.68^NS mg %
  Serum Triglycerides, hepatoprotective activity percent: (61.75 ± 1.44) percent
[2]; [14]
  Serum ALP: 23.15 ± 2.92 μmole of p-nitrophenol formed/min/L
  Serum Bilirubin: 0.17 ± 0.02 mg %
  Serum GOT: 110.53 ± 25.55 Units
  Serum GPT: 102.66 ± 28.41 Units
  Serum Triglycerides: 6.98 ± 0.79 mg %
[3]; [15]
  Serum ALP: 50.41 ± 3.07^NS μmole of p-nitophenol formed/min/L
  Serum ALP, hepatoprotective activity percent: (21.27 ± 9.50) percent
  Serum GOT: 1079.43 ± 98.66^NS Units
  Serum GOT, hepatoprotective activity percent: (25.66 ± 7.72) percent
  Serum GPT: 431.85 ± 25.52 Units
  Serum GPT, hepatoprotective activity percent: (49.67 ± 2.81) percent
  Serum Triglycerides: 14.72 ± 0.68^NS mg %
  Serum Triglycerides, hepatoprotective activity percent: (28.28 ± 8.27) percent
[3]; 25 mg/kg p.o. + APAP, curative
  Serum ALP: 46.23 ± 1.73 μmole of p-nitophenol formed/min/L
  Serum ALP, hepatoprotective activity percent: (34.15 ± 5.39) percent
  Serum GOT: 880.10 ± 60.29 Units
  Serum GOT, hepatoprotective activity percent: (41.26 ± 4.72) percent
  Serum GPT: 320.07 ± 41.33 Units
  Serum GPT, hepatoprotective activity percent: (67.52 ± 7.71) percent
  Serum Triglycerides: 13.47 ± 0.89^NS mg %
  Serum Triglycerides, hepatoprotective activity percent: (43.32 ± 10.80) percent
[3]; 50 mg/kg p.o. + APAP, curative
  Serum ALP: 41.44 ± 1.27 μmole of p-nitophenol formed/min/L
  Serum ALP, hepatoprotective activity percent: (49.04 ± 3.94) percent
  Serum GOT: 619.36 ± 88.89 Units
  Serum GOT, hepatoprotective activity percent: (61.67 ± 6.96) percent
  Serum GPT: 282.74 ± 32.96 Units
  Serum Triglycerides: 12.34 ± 0.85 mg %
  Serum Triglycerides, hepatoprotective activity percent: (56.84 ± 10.23) percent
[3]; [16]
  Serum ALP: 35.08 ± 2.18 μmole of p-nitophenol formed/min/L
  Serum ALP, hepatoprotective activity percent: (68.82 ± 6.78) percent
  Serum GOT: 310.53 ± 45.32 Units
  Serum GOT, hepatoprotective activity percent: (85.85 ± 4.25) percent
  Serum GPT: 235.59 ± 22.77 Units
  Serum GPT, hepatoprotective activity percent: (83.33 ± 1.99) percent
  Serum Triglycerides: 10.87 ± 0.69 mg %
  Serum Triglycerides, hepatoprotective activity percent: (74.48 ± 8.37) percent
[3]; [17]
  Serum ALP: 22.57 ± 2.95 μmole of p-nitophenol formed/min/L
  Serum GOT: 133.77 ± 20.84 Units
  Serum GPT: 129.65 ± 24.84 Units
  Serum Triglycerides: 7.43 ± 0.89 mg %
[4]; 25 mg/kg + Alcohol
  Hepatic G-6-Pase: 2.19 ± 0.465 Units/g
  Hepatic G-6-Pase % Protection: 73%
  Hepatic Protein: 172 ± 20.430 Mg/g
  Hepatic SDII: 7.79 ± 0.272 Units/G
  Hepatic SDII % Protection: 14%
  Hepatic TG: 14.75 ± 0.60 Mg/g
  Hepatic TG % change: −3.10%
  Hepatic Protein % change: −3.9%
[4]; 25 mg/kg + Alcohol, serum
  ALF: 16.00 ± 2.04 U/I
  ALF % Protection: 80.00%
  GGT: 1.90 ± 0.447 IU/I
  GGT % Protection: 63.00%
  SGOT: 310.00 ± 30.36**^β U/I
  SGOT % Protection: 77.29%
  SGPT: 234.00 ± 8.80**^β U/I
  SGPT % Protection: 57.33%
  Serum Protein: 16.90 ± 3.38 G/dl
  Serum Protein % Protection: 44.40%
[4]; 50 mg/kg + Alcohol
  Hepatic G-6-Pase: 2.20 ± 2.223 Units/g
  Hepatic G-6-Pase % Protection: 75%
  Hepatic Protein: 174 ± 2.11 Mg/g
  Hepatic SDII: 8.24 ± 0.390 Units/G
  Hepatic SDII % Protection: 43%
  Hepatic TG: 15.44 ± 1.073 Mg/g
  Hepatic TG % change: 1.40%
  Hepatic Protein % change: −2.80%
[4]; 50 mg/kg + Alcohol, serum
  ALF: 14.60 ± 2.82***^β U/I
  ALF % Protection: 95.00%
  GGT: 1.54 ± 0.128 IU/I
  GGT % Protection: 90.00%
  SGOT: 295.00 ± 34.39**^β U/I
  SGOT % Protection: 101.09%
  SGPT % Protection: 73.86%
  Serum Protein: 12.60 ± 3.09 G/dl
  Serum Protein % Protection: 7.70%
[5]; [6]
  Zoxazolamine Hepatoprotection: 40.10 ± 6.55%
  Zoxazolamine Paralysis time: 39.00 ± 1.93*^c min
[5]; [7]
  Zoxazolamine Hepatoprotection: 51.40 ± 11.12%
  Zoxazolamine Paralysis time: 35.66 ± 3.28**^c min
[5]; [8]
  Zoxazolamine Hepatoprotection: 70.61 ± 7.68%
  Zoxazolamine Paralysis time: 30.00 ± 2.26**^c min
[5]; [9]
  Zoxazolamine Hepatoprotection: 84.17 ± 6.55%
  Zoxazolamine Paralysis time: 26.00 ± 1.93**^c min
